Measured values as given in publication PMC12526154, “Bioactive Compounds Discovery from French Guiana Plant Extracts Through Antitubercular Screening and Molecular Networking” (Plants, 2025).
≈ marks a conversion by molar mass, not a printed value. Entries after “also recorded” stand apart in the source; their conditions may differ. Where two headings read alike, the source gives them in different places.

Columns and labels:
Mtb H37Rv = conditions: cited from earlier work; for MIC90 / MIC (H37Rv): previously reported
Mycobacterium smegmatis = test system: Mycobacterium smegmatis; parameters: method as in earlier work; conditions: ref 33 (Van Puyvelde et al.); cited from earlier work
[1] = test system: Mtb H37Ra strain (ATCC 25177); experiment: Broth microdilution growth inhibition assay against Mtb H37Ra; format: cell-based, Mycobacterium tuberculosis; conditions: for antitubercular activity (in words): Mtb H37Ra; for MIC90: 90% inhibition of Mtb H37Ra growth
in vitro = conditions: human, CC50, BEAS-2B, 24 h exposure, resazurin; mean ± SD (n = 3)
[2] = Resazurin reduction cytotoxicity assay, IMR90; conditions: human, IMR-90 fetal lung fibroblasts
[3] = Resazurin reduction cytotoxicity assay, THP-1 macrophages; conditions: human
[4] = Resazurin reduction cytotoxicity assay, Raw264.7; conditions: mouse
[5] = Resazurin reduction cytotoxicity assay, HepG2; conditions: human, HepG2 hepatocellular carcinoma cells
HepG2 cells = experiment: Resazurin reduction cytotoxicity assay, HepG2; conditions: HepG2, 24 h exposure, resazurin; mean ± SD (n = 3)
Mtb H37Ra = conditions: cited from earlier work
[6] = Mycobacterium tuberculosis, pure commercial compounds, 50% inhibition of Mtb H37Ra growth, mean ± SD, read-out: MIC50
[7] = Mycobacterium tuberculosis, pure commercial compounds, mean ± SD, read-out: MIC90
[8] = pure commercial compounds, 50% inhibition of Mtb H37Ra growth, mean ± SD, read-out: MIC50
[9] = pure commercial compounds, 50% inhibition of Mtb H37Ra growth, mean ± SD
[10] = pure commercial compounds, mean ± SD

Compound: CC(C)C1=C(O)C(=O)C2=C(C=C[C@H]3C(C)(C)CCC[C@]23C)C1=O [6,7-dehydroroyleanone]
- MIC90 (Mtb H37Rv; Mtb H37Rv, ref 10 (Baldin et al.)): 31.2 µg/mL (≈ 99.2 µM)

Compound: C=C[C@]1(C)C=C2[C@H](O)C[C@@H]3C(C)(CCC[C@@]3(C)CO)[C@H]2CC1 (stereo partly drawn) [8(14),15-sandaracopimaradiene-7α,18diol]
- MIC90 (Mycobacterium smegmatis): 12 µg/mL (≈ 39.4 µM)

Compound: C=C1CC[C@H]2O[C@]2(C)CC[C@@H]2[C@@H]1CC2(C)C [Caryophyllene oxide]
- antitubercular activity (in words) [1]: very low to no activity; also recorded: inactive
- MIC50 [1, 6]: > 200 µM
- MIC90 [1, 7]: > 200 µM
- MIC50 [1, 8]: > 200 µM

Compound: COc1ccc(-c2oc3cc(OC)c(OC)c(O)c3c(=O)c2OC)cc1O [Casticin]
- MIC50 [1, 6]: > 200 µM
- MIC90 [1, 7]: > 200 µM
- MIC50 [1, 8]: >200 µM

Compound: COc1cc2oc(-c3ccc(O)c(O)c3)cc(=O)c2c(O)c1OC [Cirsiliol]
- CC50 (in vitro): > 250 µM
- CC50 at 24 h [2]: 108 ± 44.1 µM
- CC50 at 24 h [3]: 11.2 ± 2.7 µM
- CC50 at 24 h ([4]; Raw264.7 macrophage cells): 71.2 ± 44.1 µM
- MIC50 [1, 6]: 80.3 µM (≈ 26.5 µg/mL)
- MIC90 [1, 7]: > 200 µM
- MIC50 [1, 9]: 80.3 ± 43 µM (≈ 26.5 µg/mL)
- MIC90 ([1]; pure commercial compounds, mean ± SD, read-out: MIC90): >200 µM
- CC50 at 24 h [5]: > 250 µM

Compound: CC[C@@H](CO)NCCN[C@@H](CC)CO [Ethambutol, reference compound]
- MIC50 [1, 6]: 10.3 ± 4 µM (≈ 2.1 µg/mL)
- MIC90 [1, 7]: 17.3 ± 0.96 µM (≈ 3.53 µg/mL)

Compound: COc1c(O)cc2oc(-c3ccc(O)cc3)cc(=O)c2c1O [Hispidulin]
- CC50 (in vitro): > 250 µM
- CC50 at 24 h [3]: 21.1 ± 14.5 µM
- CC50 at 24 h [4]: 227 ± 36.7 µM
- MIC50 [1, 6]: 54.8 µM (≈ 16.5 µg/mL)
- MIC90 [1, 7]: 162 µM (≈ 48.6 µg/mL)
- MIC50 [1, 9]: 54.8 ± 25.6 µM (≈ 16.5 µg/mL)
- MIC90 [1, 10]: 162 ± 75 µM (≈ 48.6 µg/mL)

Compound: NC[C@H]1O[C@H](O[C@H]2[C@H](O)[C@@H](O[C@H]3O[C@H](CO)[C@@H](O)[C@H](N)[C@H]3O)[C@H](N)C[C@@H]2N)[C@H](O)[C@@H](O)[C@@H]1O [Kanamycin, reference compound]
- MIC50 [1, 9]: 3.3 ± 0.40 µM (≈ 1.6 µg/mL)
- MIC90 [1, 10]: 7.5 ± 1.7 µM (≈ 3.63 µg/mL)

Compound: CC1(C)C[C@H](O)C[C@@]2(C)OC(=O)C=C12 [Loliolide]
- antitubercular activity (in words) [1]: inactive
- MIC50 [1, 6]: > 200 µM
- MIC90 [1, 7]: > 200 µM
- MIC50 [1, 8]: > 200 µM

Compound: O=c1cc(-c2ccc(O)c(O)c2)oc2cc(O)cc(O)c12 [Luteolin]
- MIC90 / MIC (H37Rv) (Mtb H37Rv; Mtb H37Rv): 78.12 µg/mL (≈ 273 µM)

Compound: COc1cc(C2c3c(cc(OC)c(O)c3OC)CC(CO)C2CO)cc(OC)c1O (stereo not drawn) [Lyoniresinol]
- antitubercular activity (in words) [1]: inactive
- MIC50 [1, 6]: > 200 µM
- MIC90 [1, 7]: > 200 µM
- MIC50 [1, 8]: > 200 µM

Compound: C=Cc1c(C)c2cc3nc(c4c5[nH]c(cc6nc(cc1[nH]2)C(C)=C6CC)c(C)c5C(=O)[C@@H]4C(=O)OC)[C@@H](CCC(=O)O)[C@@H]3C [Pheophorbide A]
- CC50 (in vitro): ~4.9 µM
- CC50 at 24 h [2]: ~11.5 µM
- CC50 at 24 h [3]: 1.4 ± 0.8 µM
- CC50 at 24 h ([4]; Raw264.7 macrophage cells): 20.9 ± 6.5 µM
- MIC50 [1, 6]: 10.5 ± 5 µM (≈ 6.22 µg/mL)
- MIC90 [1, 7]: 17 ± 7.6 µM (≈ 10.1 µg/mL)
- MIC50 [1, 8]: 10.5 µM (≈ 6.22 µg/mL)
- CC50 at 24 h [5]: > 84.3 µM
- CC50 (HepG2 cells): no cytotoxicity

Compound: O=c1c(O)c(-c2ccc(O)c(O)c2)oc2cc(O)cc(O)c12 [Quercetin]
- MIC90 (Mtb H37Rv; H37Rv): 6.25 µg/mL (≈ 20.7 µM)

Compound: C/C1=C\CC(C)(C)/C=C/C(=O)/C(C)=C/CC1 [Zerumbone]
- CC50 (in vitro): 149 ± 43.2 µM
- CC50 at 24 h [2]: 79.8 ± 48.7 µM
- CC50 at 24 h [3]: 51.6 ± 31.6 µM
- CC50 at 24 h ([4]; Raw264.7 macrophage cells): 44.5 ± 3.5 µM
- antitubercular activity (in words) [1]: very low to no activity; also recorded: inactive
- MIC50 ([1]; Mycobacterium tuberculosis): > 200 µM
- MIC90 [1, 7]: > 200 µM
- MIC50 [1, 8]: >200 µM
- CC50 at 24 h [5]: > 250 µM

Compound: COc1ccc(-c2coc3cc(O)c(OC)cc3c2=O)cc1 [afrormosin]
- MIC90 (Mtb H37Ra): 50 µg/mL (≈ 168 µM)

Compound: O=c1cc(-c2ccc(O)cc2)oc2cc(O)cc(O)c12 [apigenin]
- MIC90 / MIC (H37Rv) (Mtb H37Rv; Mtb H37Rv): 70 µg/mL (≈ 259 µM)

Compound: COc1ccc(-c2coc3cc(O)ccc3c2=O)cc1 [formononetin]
- MIC90 (Mtb H37Ra): 25 µg/mL (≈ 93.2 µM)

Compound: O=C1CC(c2ccc(O)cc2)Oc2cc(O)ccc21 (stereo not drawn) [liquitirigenin]
- MIC (H37Ra) (Mtb H37Ra; previously reported MIC90): 25 µg/mL (≈ 97.6 µM)

Compound: CC(C)=CCC[C@](C)(O)[C@@H]1CC=C(C)CC1 [α-bisabolol]
- CC50 (in vitro): > 250 µM
- CC50 at 24 h [2]: > 250 µM
- CC50 at 24 h ([3]; THP-1-derived macrophages (PMA-differentiated)): > 250 µM
- CC50 at 24 h ([4]; Raw264.7 macrophage cells): 174 ± 26.2 µM
- MIC50 ([1]; Mycobacterium tuberculosis): > 200 µM
- MIC90 [1, 7]: > 200 µM
- MIC50 [1, 8]: >200 µM
- CC50 at 24 h [5]: > 250 µM
